Values after ≈ are worked out from the molar mass of the structure shown. “Also recorded” adds a separate entry of the source.
Experiments:
[1] = system: S. Typhimurium wild-type bacteria; test: Antibiotic susceptibility with MIC strips (E-test) on PCN agar plates with 0.01% YE; type: cell-based; conditions: for susceptibility following the switch to acid pH: switch to acid pH (4.6), PBP3SAL expression; for MIC: Salmonella enterica, TYPHIMURIUM
Excerpt: S. Typhimurium cultures grown in PCN 4.6 were normalized to an optical density at 600 nm (OD600) of 0.1 and diluted 1:10. One hundred twenty microliters of this dilution were spread onto PCN plates using glass beads. The assays were repeated at least in three independent biological replicates.

[2] = system: S. Typhimurium (wild-type); test: Spot dilution assay on PCN plates with antibiotic; type: cell-based; conditions: MEC 5 µg/mL, ATM 0.125 µg/mL
Procedure: (§1) PCN plates for spot dilution assays were prepared by mixing 7.5 ml of sterile PCN medium (2x concentrated) at the desired pH and 7.5 ml of autoclaved agar (30 mg/mL). The mixture was supplemented with 0.01% (w/v) yeast extract (YE). Cultures were grown in PCN pH 4.6 medium overnight and adjusted to same optical density values. These cultures were serially 10-fold diluted. 5 µl of each dilution was spotted onto PCN plates with or without antibiotic added.

[3] = system: S. Typhimurium mutant lacking PBP2SAL; test: Spot dilution assay on PCN plates with antibiotic; type: cell-based; conditions: pH 4.6
Procedure: as §1

[4] = system: S. Typhimurium mutant lacking PBP2; test: Spot dilution assay on PCN plates with antibiotic; type: cell-based
Procedure: as §1

[5] = system: S. Typhimurium bacteria lacking PBP2SAL; test: BALB/c mice challenge, bacterial load in spleen; type: in vivo; conditions: intraperitoneal, every 24 h
Procedure: (§2) Groups of three 8-week-old female BALB/c mice were inoculated with the following isogenic strains: MD5064 (PBP2SAL::3xFlag PBP3SAL::3xFlag), MD5063 (ΔPBP2, ΔPBP2SAL), MD5544 (ΔPBP2 ΔPBP2SAL pPBP2SAL::PBP2), MD5542 (ΔPBP3, ΔPBP3SAL and ΔPBP3 ΔPBP3SAL pPBP3SAL::PBP3). The doses used were 2x10^3 CFU in 200 µl of sterile PBS. Along four days, mice received intraperitoneally every 24 h a regime consisting in 10 mg mecillinam (MEC) or 2.5 mg aztreonam (ATM) per animal in 200 µl of sterile water. Mice were sacrificed four days post inoculation and spleens homogenized in 5 ml of sterile PBS. Aliquots (100 µl) of 10-fold serial dilutions of the homogenates were cultured in LB pH 4.6 plates to quantify the number of viable S. Typhimurium. To detect PBPs in vivo, spleen extracts from three mice were prepared at 72 hpi as described previously (Dominguez-Bernal, G. et al. Mol Microbiol. 2004; 53: 1437-1449). The protocols used in the study were approved by the Consejería de Medio Ambiente de la Comunidad de Madrid (ref. PROEX 110/19).

[6] = system: S. Typhimurium mutant lacking PBP2; test: BALB/c mice challenge, bacterial load in spleen; type: in vivo; conditions: intraperitoneal, every 24 h
Procedure: as §2

[7] = system: S. Typhimurium wild-type bacteria; test: BALB/c mice challenge, bacterial load in spleen; type: in vivo; conditions: intraperitoneal, every 24 h
Procedure: as §2

[8] = system: S. Typhimurium bacteria lacking PBP3 (ΔPBP3 mutant); test: Antibiotic susceptibility with MIC strips (E-test) on PCN agar plates with 0.01% YE; type: cell-based; conditions: Salmonella enterica, pH 4.6, read-out: MIC value
Procedure: Antibiotic susceptibility was determined using MIC strips (MIC Test Strip; Liofilchem) in PCN agar plates containing 0.01% YE at neutral or acid pH 4.6. S. Typhimurium cultures grown in PCN 4.6 were normalized to an optical density at 600 nm (OD600) of 0.1 and diluted 1:10. One hundred twenty microliters of this dilution were spread onto PCN plates using glass beads. The assays were repeated at least in three independent biological replicates.

[9] = system: S. Typhimurium mutants lacking PBP3SAL; test: Spot dilution assay on PCN plates with antibiotic; type: cell-based; conditions: pH 4.6
Procedure: as §1

[10] = system: intra-phagosomal S. Typhimurium lacking PBP3SAL in RAW 264.7 macrophages; test: Macrophage infection and colony-forming unit counting; type: cell-based; conditions: 10 µg/mL added to infected macrophages; compared with bacteria lacking PBP3
Procedure: The murine macrophage line RAW 264.7 (400319, Cell Lines Service, CLS, https://clsgmbh.de/) was cultured in Dulbecco's modified Eagle's medium (DMEM) with 5% fetal bovine serum (FBS) and 4 mM glutamine in an incubator at 37°C in a 5% CO2 atmosphere. RAW 264.7 macrophages were seeded in 24-well plates (353047, Falcon) at a density of 2x10^5 cells/well and pre-cultured for 24 h before infection. Macrophages were activated with 2.5 ng/ml interferon-γ (315-05, Peprotech) 24 h prior infection. Culture medium was replaced by fresh medium without interferon-γ and infected with S. Typhimurium strains at a multiplicity of infection (MOI) of 10:1 during 10 min. Macrophages were washed with PBS supplemented with 0.5 mM MgCl2 and 0.9 mM CaCl2 (complete PBS) and extracellular non-phagocytosed bacteria were killed by incubation in medium containing gentamicin (100 µg/ml for 1 h, followed by 10 µg/ml for the remaining incubation). If indicated, aztreonam (ATM) (10 µg/mL) was added at 1 hpi. Infected macrophages were lysed at 1 and 8 hpi. Colony-forming units (CFU) were determined after two washes of the culture with complete PBS buffer, lysis with sterile solution containing 1% (w/v) Triton X 100 and 0.1% (w/v) sodium dodecyl sulfate (SDS) in PBS and plating on LB pH 7.0 or LB pH 4.6. The assays were repeated at least in three independent biological replicates.

[11] = system: S. Typhimurium bacteria lacking PBP3SAL; test: BALB/c mice challenge, bacterial load in spleen; type: in vivo; conditions: intraperitoneal, every 24 h
Procedure: as §2

[12] = system: S. Typhimurium mutant lacking PBP3; test: BALB/c mice challenge, bacterial load in spleen; type: in vivo; conditions: intraperitoneal, every 24 h
Procedure: as §2

[13] = pH 4.6, PCN-0.01% yeast extract

CC(=O)OCC1=C(C(=O)O)N2C(=O)[C@@H](NC(=O)Cc3cccs3)[C@H]2SC1 [cephalotin]
susceptibility following the switch to acid pH [1]: decreased susceptibility

CO/N=C(\C(=O)N[C@@H]1C(=O)N2C(C(=O)O)=C(COC(N)=O)CS[C@H]12)c1ccco1 [cefuroxime]
susceptibility following the switch to acid pH [1]: decreased susceptibility

CO/N=C(\C(=O)N[C@@H]1C(=O)N2C(C(=O)O)=C(COC(C)=O)CS[C@H]12)c1csc(N)n1 [cefotaxime]
susceptibility following the switch to acid pH [1]: decreased susceptibility

CC1(C)S[C@@H]2[C@H](/N=C/N3CCCCCC3)C(=O)N2[C@H]1C(=O)O [MEC, mecillinam]
susceptibility (bacterial growth) [2, 13]: not at pH 4.6
susceptibility (bacterial growth) ([2]; pH 7.4): inhibit bacterial growth
susceptibility [3]: does not alter susceptibility
susceptibility ([4]; pH 4.6): does not alter susceptibility
susceptibility ([4]; pH 7.4): resistant
bacterial loads [5]: significant decrease of bacterial loads
effect on bacterial loads [6]: lesser effect
load of bacteria in spleen [7]: did not result in a statistically significant decrease; also recorded: slightly effect of reduced viability

C[C@H]1[C@H](NC(=O)/C(=N\OC(C)(C)C(=O)O)c2csc(N)n2)C(=O)N1S(=O)(=O)O [ATM, aztreonam]
MIC ([1]; pH 4.6): 0.125 µg/mL (≈ 0.287 µM)
MIC ([1]; pH 7.4): < 0.016 µg/mL
MIC [8]: 0.75 µg/mL (≈ 1.72 µM)
susceptibility (bacterial growth) [2, 13]: not at pH 4.6; also recorded: resistant
susceptibility (bacterial growth) ([2]; pH 7.4): inhibit bacterial growth; also recorded: susceptible
antimicrobial activity [9]: showed antimicrobial activity
susceptibility of intra-phagosomal bacteria [10]: more susceptible
bacterial loads [11]: significant decrease of bacterial loads
effect on bacterial loads [12]: lesser effect
load of bacteria in spleen [7]: did not result in a statistically significant decrease

CC(C)(O/N=C(\C(=O)N[C@@H]1C(=O)N2C(C(=O)[O-])=C(C[n+]3ccccc3)CS[C@H]12)c1csc(N)n1)C(=O)O [ceftazidime]
susceptibility following the switch to acid pH [1]: decreased susceptibility
